Laboratory results reported in patent publication US20260042762A1 (Kymera Therapeutics, Inc., priority 2018, published 2026).

What follows are compounds tested against T1, MerTK (Homo sapiens, UniProt Q12866) (assay: MerTk degradation in Jurkat cells (Western blot)). Settings: Jurkat, 4 h, 0.001-1 μM, 4 hour-incubation at 37° C., read-out: Jurkat Max % MerTK Degradation.
T1 construct: endogenous in cells; host or cells: Jurkat cells
T1 sequence (Q12866 21-999): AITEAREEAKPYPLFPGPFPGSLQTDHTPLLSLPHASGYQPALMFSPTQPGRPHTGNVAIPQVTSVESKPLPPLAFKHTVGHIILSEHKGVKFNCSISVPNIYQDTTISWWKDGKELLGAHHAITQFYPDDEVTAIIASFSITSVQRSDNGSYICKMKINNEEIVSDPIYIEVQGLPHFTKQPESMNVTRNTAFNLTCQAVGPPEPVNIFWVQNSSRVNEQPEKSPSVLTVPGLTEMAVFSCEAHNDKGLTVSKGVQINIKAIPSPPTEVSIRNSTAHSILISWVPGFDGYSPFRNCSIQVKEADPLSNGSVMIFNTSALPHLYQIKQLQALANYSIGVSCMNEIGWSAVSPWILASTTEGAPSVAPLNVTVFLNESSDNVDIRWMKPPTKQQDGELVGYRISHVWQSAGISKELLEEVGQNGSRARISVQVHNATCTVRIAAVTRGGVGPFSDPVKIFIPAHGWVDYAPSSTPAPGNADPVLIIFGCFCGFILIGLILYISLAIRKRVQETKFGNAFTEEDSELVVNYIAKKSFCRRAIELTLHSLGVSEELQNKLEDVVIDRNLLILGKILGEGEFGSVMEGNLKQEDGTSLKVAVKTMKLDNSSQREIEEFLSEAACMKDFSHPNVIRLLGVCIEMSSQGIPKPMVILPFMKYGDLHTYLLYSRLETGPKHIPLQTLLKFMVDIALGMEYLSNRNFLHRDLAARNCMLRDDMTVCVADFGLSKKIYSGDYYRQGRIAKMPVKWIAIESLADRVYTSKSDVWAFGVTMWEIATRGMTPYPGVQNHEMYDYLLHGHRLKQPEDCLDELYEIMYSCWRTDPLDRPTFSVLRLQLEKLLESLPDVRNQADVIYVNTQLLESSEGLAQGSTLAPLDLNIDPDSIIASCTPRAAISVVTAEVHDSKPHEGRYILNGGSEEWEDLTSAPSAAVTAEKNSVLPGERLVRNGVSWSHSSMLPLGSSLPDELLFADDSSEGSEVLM
Format: cell-based
Procedure: Compounds were reconstituted in DMSO to make 10 mM stock solutions. […] Cells were seeded into 6-well plates with about 5×10^6 cells per well. 2 μL of diluted compounds were added to cells to the final concentration of 0.001-1 μM. After a 4 hour-incubation at 37° C., cells were collected into 2 mL Eppendorf tubes and centrifuged at 1,000 rpm for 5 min. The cell pellets were washed with DPBS (1×) once and resuspended in 60 μL RIPA lysis buffer with Halt Protease and Phophatase Inhibitor Cocktail. The cells were lysed on ice for 10 min, then centrifuged at 14,000 rpm for 10 min at 4° C. and the supernatants were collected for western blots.
The protein concentration of cell lysates was quantified with Pierce™ BCA Protein Assay Kit. […] BCA working reagents were prepared by mixing BCA reagent A with reagent B in 50: 1 ratio. 200 μL of the BCA working reagents were added to 25 μL of BCA standard or cell lysates in microplate, and mixed thoroughly on a plate shaker for 30 seconds. After incubation at 37° C. for 30 min, the absorbance of samples at 562 nm were measured with EnVision Plate Reader.
Protein lysates were prepared in NuPAGE™ LDS sample buffer and NuPAGE™ sample reducing agent, and incubated at 95° C. for 5 min. […] The proteins were transferred to low fluorescence PVDF membranes using the Trans-Blot Turbo Transfer System. Membranes were then blocked in Odyssey blocking buffer at RT for 1 h followed by primary incubation at 4° C. overnight. The primary antibodies were MerTK rabbit monoclonal antibody and actin mouse monoclonal antibody. Membranes were washed three times with TBST (1×), and then incubated with IR Dye 800 CW Goat anti-rabbit and IR Dye 700 CW Goat anti-mouse secondary antibodies in 1:10,000 dilution at RT for 1 h. The Western blot images were obtained using Odyssey Imaging System.

Compound	Dmax [%]
C[C@@H](CC(F)(F)F)Nc1ncc2c(-c3ccc(CN4CCN(CCCOC5CN(Cc6ccc7c(c6)n(C)c(=O)n7C6CCC(=O)NC6=O)C5)CC4)cc3)cn([C@H]3CC[C@H](O)CC3)c2n1 (stereo partly drawn) [I-201, 3-(3-methyl-2-oxo-5-[[3-(3-[4-[(4-[7-[trans-4-hydroxycyclohexy1]-2-[[(2S)-4,4,4-trifluorobutan-2-yl]amino]pyrrolo[2,3-d]pyrimidin-5-y1]phenyl)methyl]piperazin-1-yl]propoxy)azetidin-1-yl]methy1]-1,3-benzodiazol-1-yl)piperidine-2,6-dione; tris(formic acid)]	20 to 50
Cc1ncsc1-c1ccc(CNC(=O)[C@@H]2C[C@@H](O)CN2C(=O)[C@@H](NC(=O)COCCOCCOCCOCCn2ccc3c(Nc4nc(N[C@@H]5CCCC[C@@H]5N)nnc4C(N)=O)cccc32)C(C)(C)C)cc1 [I-229]	< 20
Cc1cc(CNCc2ccc(C(=O)N3CC(C4CCN(Cc5ccc(-c6cn([C@H]7CC[C@H](O)CC7)c7nc(NCCC(F)(F)F)ncc67)cc5)CC4)C3)cc2)ccc1-c1ccc2nn(CC3CC3)cc2c1 [I-191, trans-4-[5-[4-([4-[1-(4-[[([4-[2-(cyclopropylmethyl)indazol-5-yl]-3-methylphenyl]methyl)amino]methyl]benzoyl)azetidin-3-yl]piperidin-1-yl]methyl)phenyl]-2-[(3,3,3-trifluoropropyl)amino]pyrrolo[2,3-d]pyrimidin-7-yl]cyclohexan-1-ol]	< 20
N[C@H]1CCCC[C@H]1Nc1cc2nc[nH]c(=O)c2c(Nc2cccc3c2ccn3CCOCCOCCOCCOCCNc2cccc3c2C(=O)N(C2CCC(=O)NC2=O)C3=O)n1 (stereo partly shown) [I-227]	> 50
Cn1c(=O)n([C@H]2CCC(=O)NC2=O)c2ccc(CCO[C@H]3C[C@@H](N4CCN(Cc5ccc(-c6cn([C@H]7CC[C@H](O)CC7)c7nc(NCCC(F)(F)F)ncc67)cc5)CC4)C3)cc21 [I-143, 3-[3-methyl-2-oxo-5-[2-(3-[4-[(4-[7-[trans-4-hydroxycyclohexyl]-2-[(3,3,3-trifluoropropyl)amino]pyrrolo[2,3-d]pyrimidin-5-yl]phenyl)methyl]piperazin-1-yl]cyclobutoxy)ethyl]-1,3-benzodiazol-1-yl]piperidine-2,6-dione; formic acid]	> 50
COCC(C)Nc1ncc2c(-c3ccc(CN4CCN(CCCCCNCCN[C@H](C(=O)N5C[C@H](O)C[C@H]5C(=O)NCc5ccc(-c6scnc6C)cc5)C(C)(C)C)CC4)cc3)cn([C@H]3CC[C@H](O)CC3)c2n1 (stereo partly drawn) [I-3, (2S,4R)-4-Hydroxy-1-[(2S)-2-([2-[(5-[4-[(4-[2-[(1-methoxypropan-2-yl)amino]-7-(trans-4-hydroxycyclohexyl)-7H-pyrrolo[2,3-d]pyrimidin-5-yl]phenyl)methyl]piperazin-1-yl]pentyl)amino]ethyl]amino)-3,3-dimethylbutanoyl]-N-[[4-(4-methyl-1,3-thiazol-5-yl)phenyl]methyl]pyrrolidine-2-carboxamide]	< 20
Cn1c(=O)n([C@H]2CCC(=O)NC2=O)c2ccc(C#CCOCCN3CCC(N4CCN(Cc5ccc(-c6cn([C@H]7CC[C@H](O)CC7)c7nc(NCCC(F)(F)F)ncc67)cc5)CC4)CC3)cc21 [I-86, 3-(3-methyl-2-oxo-5-[3-[2-(4-[4-[(4-[7-[trans-4-hydroxycyclohexy1]-2-[(3,3,3-trifluoropropyl)amino]-7H-pyrrolo[2,3-d]pyrimidin-5-yl]phenyl)methyl]piperazin-1-yl]piperidin-1-yl)ethoxy]prop-1-yn-1-yl]-2,3-dihydro-1H-1,3-benzodiazol-1-yl)piperidine-2,6-dione; formic acid]	> 50
CCC[C@H](C)Nc1ncc2c(-c3ccc(CN4CCN(CCCOC5CN(Cc6ccc7c(c6)n(C)c(=O)n7C6CCC(=O)NC6=O)C5)CC4)cc3)cn([C@H]3CC[C@H](O)CC3)c2n1 (stereo partly drawn) [I-178, 3-(3-methyl-2-oxo-5-[[3-(3-[4-[(4-[2-[(2S)-pentan-2-ylamino]-7-[trans-4-hydroxycyclohexyl]pyrrolo[2,3-d]pyrimidin-5-yl]phenyl)methyl]piperazin-1-yl]propoxy)azetidin-1-yl]methyl]-1,3-benzodiazol-1-yl)piperidine-2,6-dione]	> 50
Cn1c(=O)n(C2CCC(=O)NC2=O)c2ccc(C#CCOCCN3CCC(N4CCN(Cc5ccc(-c6cn([C@H]7CC[C@H](O)CC7)c7nc(NCCC(F)(F)F)ncc67)cc5)CC4)C3)cc21 (stereo partly drawn) [I-85, 3-(3-methyl-2-oxo-5-[3-[2-(3-[4-[(4-[7-[trans-4-hydroxycyclohexyl]-2-[(3,3,3-trifluoropropyl)amino]-7H-pyrrolo[2,3-d]pyrimidin-5-yl]phenyl)methyl]piperazin-1-yl]pyrrolidin-1-yl)ethoxy]prop-1-yn-1-y1]-2,3-dihydro-1H-1,3-benzodiazol-1-y1)piperidine-2,6-dione; di(formic acid)]	> 50
Cn1c(=O)n([C@H]2CCC(=O)NC2=O)c2ccc(CCCOCCOCC3CCN(C[C@H]4CC[C@H](c5cn([C@H]6CC[C@H](O)CC6)c6nc(NCCC(F)(F)F)ncc65)CC4)CC3)cc21 [I-172, 3-[3-methyl-2-oxo-5-(3-[2-[(1-[[trans-4-[7-[trans-4-hydroxycyclohexy1]-2-[(3,3,3-trifluoropropyl)amino]pyrrolo[2,3-d]pyrimidin-5-yl]cyclohexyl]methyl]piperidin-4-yl)methoxy]ethoxy]propy1)-1,3-benzodiazol-1-yl]piperidine-2,6-dione]	> 50
CCC[C@@H](C)Nc1ncc2c(n1)n([C@H]1CC[C@H](O)CC1)cc2[C@H]1CC[C@@H](CN2CCN(CCCO[C@H]3CCN(Cc4ccc5c(c4)n(C)c(=O)n5C4CCC(=O)NC4=O)C3)CC2)CC1 (stereo partly drawn) [I-219, 3-(3-methyl-2-oxo-5-[[(3S)-3-[3-(4-[[trans-4-[2-[(2S)-pentan-2-ylamino]-7-[trans-4-hydroxycyclohexyl]pyrrolo[2,3-d]pyrimidin-5-yl]cyclohexyl]methyl]piperazin-1-y1)propoxy]pyrrolidin-1-yl]methyl]-1,3-benzodiazol-1-yl)piperidine-2,6-dione; tris(formic acid)]	> 50
CCCCNc1ncc2c(-c3ccc(CN4CCN(CCOCCOCCOCCOCCNc5ccc6c(c5)n(C)c(=O)n6[C@H]5CCC(=O)NC5=O)CC4)cc3)cn([C@H]3CC[C@H](O)CC3)c2n1 [I-61, 3-(5-[15-[4-([4-[2-(butylamino)-7-[trans-4-hydroxycyclohexyl]-7H-pyrrolo[2,3-d]pyrimidin-5-yl]phenyl]methyl)piperazin-1-y1]-4,7,10,13-tetraoxa-1-azapentadecan-1-y1]-3-methyl-2-oxo-2,3-dihydro-1H-1,3-benzodiazol-1-y1)piperidine-2,6-dione; bis(formic acid)]	> 50
CCC[C@H](C)Nc1ncc2c(n1)n([C@H]1CC[C@H](O)CC1)cc2[C@H]1CC[C@H](CN2CCN(CCCOC3CCN(Cc4ccc5c(c4)n(C)c(=O)n5C4CCC(=O)NC4=O)CC3)CC2)CC1 (stereo partly drawn) [I-208, 3-[3-methyl-2-oxo-5-([4-[3-(4-[[trans-4-[2-[(2S)-pentan-2-ylamino]-7-[trans-4-hydroxycyclohexyl]pyrrolo[2,3-d]pyrimidin-5-yl]cyclohexyl]methyl]piperazin-1-yl)propoxy]piperidin-1-yl]methyl)-1,3-benzodiazol-1-yl]piperidine-2,6-dione]	> 50
